Data published in article PMC11302339, “A series of pyrimidine-based antifungals with anti-mold activity disrupt ER function in Aspergillus fumigatus” (Microbiology Spectrum, 2024).
In brackets after ≈: the same amount, converted by molar mass. Where two headings read alike, the source gives them in different places. Marks after values point to notes of the source that are not given here.

Legend:
[1] = Protein binding analysis, brain; format: in vitro ADME
A549 cells = test: Cytotoxicity by LDH release; format: cell-based, human; settings: A549, 24 hours
Experimental: (§1) HepG2 [American Type Culture Collection (ATCC), HB-8065], HeLa (ATCC, CCL-2), and A549 (ATCC, CCL-185) cells were maintained and cultured in Dulbecco’s modified Eagle medium (Gibco, Cat # 11965–092) with 10% FBS and 1% penicillin/streptomycin at 37°C with 5% CO2. Cells were seeded in 96-well plates at a density of 1.25 × 10^4 cells/well and incubated overnight at 37°C with 5% CO2; then, media were removed and replaced with media containing a twofold drug dilution series with equal DMSO across all wells. Cells were incubated for an additional 24 hours, then the supernatant was removed and used to quantify lactate dehydrogenase release using the CyQuant LDH assay kit (Invitrogen, Cat # C20300) following the manufacturers’ directions. LDH was normalized to a maximum lysis control treated with Triton-X. HeLa and A549 cells were purchased in 2023, and the cells used for these studies were directly from fresh vials. HepG2 cells for these studies were used from a fresh, low passage (P3) vial saved directly from purchased stocks.

HeLa cells = test: Cytotoxicity by LDH release; format: cell-based, human; settings: 24 hours
Experimental: as §1

HepG2 cells = test: Cytotoxicity by LDH release; format: cell-based, human; settings: HepG2, 24 hours
Experimental: as §1

A. niger = test: MIC testing (CLSI broth dilution); format: cell-based, Aspergillus niger; settings: strain S007, clinical isolate; no clear well, growth reduced by ≥50% at MEC
Experimental: (§2) MICs were determined using Clinical and Laboratory Standards Institute guidelines ([48], [49]). All yeasts were cultured overnight in 3 mL YPD at 30°C, then washed twice in sterile phosphate-buffered saline (PBS). Twofold serial dilutions of each drug were prepared in RMPI + MOPS, then 1 × 10^3 cells were added per well. For mold species, wells were inoculated with 1.25 × 10^3 conidia per well. Plates were incubated at 37°C for 24 (Candida spp. and S. cerevisiae), 48 (Aspergillus spp., M. circinelloides, S. apiospermum, and L. prolificans), or 72 (C. neoformans and F. oxysporum) hours. S. cerevisiae BY4743 MICs were tested in YPD due to nutritional requirements of this strain. Each assay was performed in technical duplicate in at least two independent experiments performed on different days.

A. fumigatus ∆ireA = test: Susceptibility of ∆ireA mutant on GMM plates; format: cell-based, Aspergillus fumigatus; settings: 72 hours at 30°C, colony diameter ratio
Experimental: For Aspergillus fumigatus, 5 µL of 1 × 10^4 CEA10 conidia was spotted at the center of GMM plates containing DMSO or 1 µg/mL 1 in combination with DTT, brefeldin A, or tunicamycin. Plates were incubated at 37°C for 72 hours. Representative images of two independent experiments with three biological replicates each were obtained. For Ire1 strains, the cells were prepared as described above but were incubated at 30°C.

C. glabrata = test: MIC testing (CLSI broth dilution); format: cell-based; settings: Nakaseomyces glabratus; strain KK2001; CLSI conditions
Experimental: as §2

F. oxysporum = test: MIC testing (CLSI broth dilution); format: cell-based; settings: Fusarium oxysporum; strain DUMC Fo, clinical isolate; CLSI conditions, 72 h
Experimental: as §2

C. neoformans = test: MIC testing (CLSI broth dilution); format: cell-based; settings: Cryptococcus neoformans
Experimental: as §2

L. prolificans = test: MIC testing (CLSI broth dilution); format: cell-based; settings: Lomentospora prolificans; strain 90853; CLSI conditions
Experimental: as §2

S. apiospermum = test: MIC testing (CLSI broth dilution); format: cell-based; settings: Scedosporium apiospermum; strain MYA3635 (lab reference strain); CLSI conditions
Experimental: as §2

M. circinelloides = test: MIC testing (CLSI broth dilution); format: cell-based; settings: Mucor circinelloides; strain CBS277.49; CLSI conditions
Experimental: as §2

A. fumigatus = test: MIC testing (CLSI broth dilution); format: cell-based; settings: Aspergillus fumigatus
Experimental: as §2

[2] = test system: A. fumigatus UPR-responsive genes; test: A. fumigatus UPR gene expression (qRT-PCR); format: cell-based, Aspergillus fumigatus
Experimental: We cultured 5 × 10^6 CEA10 conidia/mL in liquid GMM for 18 hours at 37°C with shaking at 250 rpm. Cultures were treated with either DMSO or 16 µg/mL 1 for 2 hours at 37°C, 250 rpm. Then 1 mM DTT or water was added, and cultures were incubated for an additional hour. Mycelia were collected with vacuum filtration and immediately frozen with liquid nitrogen. Tissue was lyophilized then ground with glass beads with a bead beater. RNA was extracted in 1 mL of TRIazole solution (Life Technologies, Cat # 15596026), then RNA was purified with two rounds of chloroform extraction. Five micrograms of RNA was treated with TURBO DNA-free kit (Invitrogen, Cat # AM1907) according to the manufacturer’s protocol. Five hundred nanograms of DNAse-treated RNA was used for cDNA synthesis with iScript cDNA synthesis kit (BioRad, Cat # 1708891), then cDNA was diluted 1:5 with ddH2O. Quantitative real time PCR analysis was performed in 20 µL reactions using 2 µL of dilute cDNA per reaction with iQ SYBR Green Supermix (BioRad). Samples were run on a BioRad CFX Connect using a three-step amplification with 54°C annealing temperature and melt curve analysis. Gene expression is normalized to tubA and tef1 expression. Gene expression was performed in biological triplicate. Primers to detect HacA splicing and targets were designed as previously described ([51]).

[3] = combination: 16 µg/mL 1 for 2 hours, then 1 mM DTT for 1 hour
[4] = single agent (16 µg/mL 1, or 1 mM DTT for 1 hour), normalized to DMSO

## OC1CC(c2cc(N3CCC(CCc4ccccc4)CC3)ncn2)C1 (stereo not drawn) [compound 1]
[1]; read-out: Corrected % Protein binding (converted)
  fraction unbound at 6 h, 5 µM: 0.0112
[1]; uncorrected
  fraction unbound: 0.1
A549 cells
  LD50 (LDH release): 198 µg/mL
HeLa cells
  LD50 (LDH release): 146 µg/mL
HepG2 cells
  LD50 (LDH release): 111 µg/mL
A. niger
  Minimum effective concentration (MEC): 16^b µg/mL
A. fumigatus ∆ireA
  susceptibility of ∆ireA mutant vs wild type: same susceptibility as wild type
C. glabrata
  MIC: 64 µg/mL (≈ 190 µM)
F. oxysporum
  MIC: > 64 µg/mL
C. neoformans; 72 h, strain H99, CLSI conditions
  MIC: 1 µg/mL (≈ 2.96 µM)
C. neoformans; strain DUMC118, clinical isolate, CLSI conditions
  MIC: 2 µg/mL (≈ 5.93 µM)
C. neoformans; strain DUMC138, clinical isolate, CLSI conditions
  MIC: 1 µg/mL (≈ 2.96 µM)
C. neoformans; strain JEC21, CLSI conditions
  MIC: 2 µg/mL (≈ 5.93 µM)
C. neoformans; strain not named
  MIC: 2 µg/mL (≈ 5.93 µM)
L. prolificans
  MIC: 8 µg/mL (≈ 23.7 µM)
S. apiospermum
  MIC: 2 µg/mL (≈ 5.93 µM)
M. circinelloides
  MIC: 16 µg/mL (≈ 47.4 µM)
A. fumigatus; 48 h, strain CEA10, CLSI conditions, 48 h, read-out: MIC
  MIC: 16 µg/mL (≈ 47.4 µM)
A. fumigatus; ATCC13073, strain ATCC13073, CLSI conditions, read-out: MIC
  MIC: 8 µg/mL (≈ 23.7 µM)
A. fumigatus; strain AF293, CLSI conditions, read-out: MIC
  MIC: 16 µg/mL (≈ 47.4 µM)
A. fumigatus; strain S001, clinical isolate, CLSI conditions, read-out: MIC
  MIC: 8 µg/mL (≈ 23.7 µM)
A. fumigatus; strain S003, clinical isolate, CLSI conditions, read-out: MIC
  MIC: 4 µg/mL (≈ 11.9 µM)
A. fumigatus; strain SPF93 (voriconazole-susceptible parent), CLSI conditions, read-out: MIC
  MIC: 8 µg/mL (≈ 23.7 µM)
A. fumigatus; strain SPF98, drug-resistant isolate (cyp51A TR34 L98H), CLSI conditions
  MIC: 8 µg/mL (≈ 23.7 µM)
A. fumigatus; A. fumigatus reference strains and clinical isolates, read-out: MIC
  MIC: 8 to 16 µg/mL (≈ 23.7 to 47.4 µM)
[2]; [3]
  increase in HacA^A splicing: 17 fold
  increase in HacA^B: 3 fold
[2]; [4]
  increase in BipA expression: 2 fold
  increase in PdiA expression: no change
  increase of spliced HacA (HacA^A): about threefold
